Results as given in the NIST ThermoML archive (doi:10.1021/je025657+).
“And” between values parts separate entries of the source, which are not always exact repeats. Identical values can stand only once.

Settings: for vapor or sublimation pressure: Closed cell (Static) method

COC(F)(F)F [trifluoromethoxymethane]
Gas, Burnett expansion method
Settings	mass density [kg/m3]
320 K, 421.5 kPa	17.3
320 K, 570.4 kPa	24.28
320 K, 604.9 kPa	25.98
320 K, 802.9 kPa	36.45
320 K, 847.1 kPa	38.98
330 K, 137.5 kPa	5.133
330 K, 188.9 kPa	7.099
330 K, 203.7 kPa	7.696
330 K, 280.6 kPa	10.75
330 K, 300.2 kPa	11.55
330 K, 410.7 kPa	16.13
330 K, 437.5 kPa	17.29
330 K, 594.3 kPa	24.27
330 K, 630.6 kPa	25.96
330 K, 841.9 kPa	36.48
330 K, 889 kPa	38.98
340 K, 141.7 kPa	5.126
340 K, 195.8 kPa	7.136
340 K, 210.4 kPa	7.694
340 K, 310.5 kPa	11.54
340 K, 425.6 kPa	16.13
340 K, 453.5 kPa	17.28
340 K, 655.6 kPa	25.94
340 K, 879.5 kPa	36.45
340 K, 929.4 kPa	38.95
340 K, 1216.9 kPa	54.78
340 K, 1278.5 kPa	58.56
340 K, 1605.8 kPa	82.06
350 K, 146.2 kPa	5.127
350 K, 202.9 kPa	7.174
350 K, 217 kPa	7.688
350 K, 299.5 kPa	10.74
350 K, 320.6 kPa	11.53
350 K, 469.2 kPa	17.27
350 K, 640.8 kPa	24.25
350 K, 680.3 kPa	25.92
350 K, 969 kPa	38.92
350 K, 1277.1 kPa	54.75
350 K, 1343.5 kPa	58.5
350 K, 1709.6 kPa	82.31
350 K, 1782.8 kPa	87.93
360 K, 150.4 kPa	5.122
360 K, 208.1 kPa	7.139
360 K, 223.5 kPa	7.683
360 K, 330.6 kPa	11.52
360 K, 455 kPa	16.13
360 K, 484.7 kPa	17.25
360 K, 704.6 kPa	25.9
360 K, 952.6 kPa	36.41
360 K, 1007.9 kPa	38.88
360 K, 1335.8 kPa	54.71
360 K, 1406.7 kPa	58.43
360 K, 1807.1 kPa	82.26
360 K, 1888.4 kPa	87.85
360 K, 2309 kPa	123.6
360 K, 2385.4 kPa	132
370 K, 154.7 kPa	5.117
370 K, 215.6 kPa	7.182
370 K, 230 kPa	7.677
370 K, 318.3 kPa	10.73
370 K, 340.6 kPa	11.52
370 K, 500.1 kPa	17.24
370 K, 686.1 kPa	24.23
370 K, 728.8 kPa	25.88
370 K, 1046.2 kPa	38.85
370 K, 1393.4 kPa	54.67
370 K, 1468.6 kPa	58.37
370 K, 1901.8 kPa	82.19
370 K, 1990.6 kPa	87.72
370 K, 2469.3 kPa	123.6
370 K, 2559 kPa	132
370 K, 2970.3 kPa	185.3
370 K, 3031.6 kPa	197.4
380 K, 147.8 kPa	4.751
380 K, 158.9 kPa	5.114
380 K, 220.5 kPa	7.14
380 K, 236.5 kPa	7.671
380 K, 327.6 kPa	10.73
380 K, 350.5 kPa	11.51
380 K, 483.9 kPa	16.12
380 K, 515.4 kPa	17.23
380 K, 708.4 kPa	24.22
380 K, 752.6 kPa	25.86
380 K, 1023.5 kPa	36.37
380 K, 1084 kPa	38.82
380 K, 1450 kPa	54.63
380 K, 1529.5 kPa	58.32
380 K, 1994.4 kPa	82.12
380 K, 2092.4 kPa	87.73
380 K, 2624.1 kPa	123.5
380 K, 2726.4 kPa	131.8
380 K, 3233.6 kPa	185.9
380 K, 3316.9 kPa	198.3
380 K, 3647 kPa	276.7
380 K, 3686.3 kPa	294.2
380 K, 3776.4 kPa	381.1
380 K, 3786.4 kPa	439.7

Settings	mass density [kg/m3]
320 K, 449.1 kPa, Gas	18.62
320 K, 634.7 kPa, Gas	27.54
320 K, 968.5 kPa, Gas	46.37
320 K, 1046.3 kPa, Liquid	1013.52
320 K, 1081.4 kPa, Liquid	1013.85
320 K, 1117.7 kPa, Liquid	1014.21
320 K, 1512.4 kPa, Liquid	1017.85
320 K, 1515.2 kPa, Liquid	1018.55
320 K, 2029.1 kPa, Liquid	1023.1
320 K, 2036.4 kPa, Liquid	1022.49
320 K, 2520.5 kPa, Liquid	1026.61
320 K, 2529.1 kPa, Liquid	1027.35
320 K, 3012.2 kPa, Liquid	1031.29
320 K, 3050.4 kPa, Liquid	1030.92
320 K, 3512.7 kPa, Liquid	1035.21
320 K, 3595.2 kPa, Liquid	1035.17
320 K, 4030.7 kPa, Liquid	1039.11
320 K, 4131.4 kPa, Liquid	1039.19
320 K, 4518.5 kPa, Liquid	1042.67
320 K, 4616.1 kPa, Liquid	1042.69
320 K, 5039.6 kPa, Liquid	1046.35
320 K, 5136.9 kPa, Liquid	1046.33
320 K, 5518 kPa, Liquid	1049.62
320 K, 5652.1 kPa, Liquid	1049.82
320 K, 6055.9 kPa, Liquid	1053.18
320 K, 6201.4 kPa, Liquid	1053.41
320 K, 6522.4 kPa, Liquid	1056.19
320 K, 6721.8 kPa, Liquid	1056.72
320 K, 6877.8 kPa, Liquid	1058.42
320 K, 7175.8 kPa, Liquid	1059.52
330 K, 72.1 kPa, Gas	2.7
330 K, 106.1 kPa, Gas	3.97
330 K, 155.7 kPa, Gas	5.88
330 K, 227.6 kPa, Gas	8.7
330 K, 330.5 kPa, Gas	12.87
330 K, 475.1 kPa, Gas	19.02
330 K, 674.2 kPa, Gas	28.13
330 K, 936.5 kPa, Gas	41.69
330 K, 1364.9 kPa, Liquid	972.53
330 K, 1414.6 kPa, Liquid	973.15
330 K, 1458.1 kPa, Liquid	973.66
330 K, 2087 kPa, Liquid	981.1
330 K, 2555.2 kPa, Liquid	986.24
330 K, 3114.9 kPa, Liquid	992.08
330 K, 3553.8 kPa, Liquid	996.38
330 K, 4105.6 kPa, Liquid	1001.58
330 K, 4643.4 kPa, Liquid	1006.39
330 K, 5117 kPa, Liquid	1010.47
330 K, 5639.1 kPa, Liquid	1014.76
330 K, 6168.6 kPa, Liquid	1018.96
330 K, 6739.6 kPa, Liquid	1023.31
330 K, 7155.4 kPa, Liquid	1026.38
340 K, 1691.6 kPa, Liquid	925.88
340 K, 1704.5 kPa, Liquid	926.14
340 K, 1776.3 kPa, Liquid	927.36
340 K, 2059.3 kPa, Liquid	932.03
340 K, 2582.2 kPa, Liquid	940.1
340 K, 3081.7 kPa, Liquid	947.17
340 K, 3596.1 kPa, Liquid	953.91
340 K, 4130.8 kPa, Liquid	960.48
340 K, 4614 kPa, Liquid	966.04
340 K, 5146.7 kPa, Liquid	971.84
340 K, 5642.7 kPa, Liquid	976.95
340 K, 6163.1 kPa, Liquid	982.05
340 K, 6711.6 kPa, Liquid	987.19
340 K, 7112.6 kPa, Liquid	990.78
350 K, 2091.1 kPa, Liquid	872.23
350 K, 2104.3 kPa, Liquid	872.59
350 K, 2141.2 kPa, Liquid	873.54
350 K, 2548.5 kPa, Liquid	883.49
350 K, 3078 kPa, Liquid	894.77
350 K, 3561.7 kPa, Liquid	903.94
350 K, 4061.4 kPa, Liquid	912.5
350 K, 4604.4 kPa, Liquid	920.96
350 K, 5110.9 kPa, Liquid	928.26
350 K, 5614.7 kPa, Liquid	935
350 K, 6145.6 kPa, Liquid	941.66
350 K, 6708.6 kPa, Liquid	948.27
350 K, 7180.7 kPa, Liquid	953.51
360 K, 2566.6 kPa, Liquid	806.04
360 K, 2595.3 kPa, Liquid	807.47
360 K, 2674 kPa, Liquid	811
360 K, 3046.9 kPa, Liquid	825.94
360 K, 3567.7 kPa, Liquid	842.69
360 K, 4099.1 kPa, Liquid	856.85
360 K, 4614.4 kPa, Liquid	868.64
360 K, 5110 kPa, Liquid	878.67
360 K, 5611.7 kPa, Liquid	887.84
360 K, 6201.7 kPa, Liquid	897.63
360 K, 6215.7 kPa, Liquid	897.87
360 K, 6705.8 kPa, Liquid	905.3
360 K, 7100.8 kPa, Liquid	910.94
370 K, 3130.2 kPa, Liquid	712.6
370 K, 3147.8 kPa, Liquid	715.08
370 K, 3586 kPa, Liquid	754.94
370 K, 4068.1 kPa, Liquid	781.44
370 K, 4642.5 kPa, Liquid	804.25
370 K, 5159.1 kPa, Liquid	820.53
370 K, 5641.4 kPa, Liquid	833.56
370 K, 6176.7 kPa, Liquid	846.09
370 K, 6712.7 kPa, Liquid	857.24
370 K, 7155.1 kPa, Liquid	865.58
380 K, 345.8 kPa, Gas	11.4
380 K, 411.6 kPa, Gas	13.64
380 K, 637.2 kPa, Gas	21.72
380 K, 1069 kPa, Gas	38.43
380 K, 1190.9 kPa, Gas	43.52
380 K, 1736.8 kPa, Gas	68.74
380 K, 2282.2 kPa, Gas	99.68
380 K, 2913 kPa, Gas	148.72
380 K, 3383.7 kPa, Gas	207.93
380 K, 3672.6 kPa, Gas	287.87
380 K, 3791.1 kPa, Gas	430.78
380 K, 3807.7 kPa, Liquid	489.63
380 K, 4003.4 kPa, Liquid	629
380 K, 4596.7 kPa, Liquid	707.34
380 K, 5159.5 kPa, Liquid	743.66
380 K, 5653.6 kPa, Liquid	766.09
380 K, 6175.8 kPa, Liquid	785.18
380 K, 6672.5 kPa, Liquid	800.32
380 K, 7138.9 kPa, Liquid	812.7

Liquid
Settings	mass density	vapor or sublimation pressure
320 K	1013.47 kg/m3 and 1014.09 kg/m3	1038.1 kPa and 1038.5 kPa and 1038.4 kPa
325 K	–	1175.7 kPa
330 K	972.09 kg/m3 and 973.36 kg/m3 and 973.37 kg/m3	1325.7 kPa and 1325.6 kPa
335 K	–	1489.7 kPa
340 K	925.57 kg/m3	1668.8 kPa and 1668.5 kPa and 1670.2 kPa
345 K	–	1863.6 kPa
350 K	871.95 kg/m3	2074.9 kPa and 2075 kPa and 2071.7 kPa
355 K	–	2304.3 kPa
360 K	805.64 kg/m3	2553.1 kPa and 2553.8 kPa and 2554.9 kPa
365 K	–	2823.3 kPa
370 K	711.78 kg/m3	3116.4 kPa and 3117.3 kPa and 3117.1 kPa
375 K	–	3435.7 kPa
